Measured values published in publication PMC11277083, “A Natural Bioactive Peptide from Pinctada fucata Pearls Can Be Used as a Potential Inhibitor of the Interaction between SARS-CoV-2 and ACE2 against COVID-19” (International Journal of Molecular Sciences, 2024).
Like-named read-outs stand apart in the source and are kept apart here. Where no end group is shown, it is not given here.

Key:
ACE2 [1] = conditions: reduces the affinity between spiny proteins and ACE2; cited from earlier work
ACE2 [2] = conditions: compared with KKCH-ACE2 affinity; cited from earlier work
[3] = test system: virus S1 protein and the ACE2 receptor; conditions: cited from earlier work
ACE2 protein = target: T1, ACE2 protein (Homo sapiens, UniProt Q9BYF1); test: SPR affinity for ACE2 (Biacore T200, CM5 chip); conditions: ACE2 on CM5 chip, 1:1 Langmuir binding model, read-out: association (Ka)
T1 construct: purchased CUSABIO (Wuhan, China) CSB-MP866317HU
T1 sequence (Q9BYF1 18-805): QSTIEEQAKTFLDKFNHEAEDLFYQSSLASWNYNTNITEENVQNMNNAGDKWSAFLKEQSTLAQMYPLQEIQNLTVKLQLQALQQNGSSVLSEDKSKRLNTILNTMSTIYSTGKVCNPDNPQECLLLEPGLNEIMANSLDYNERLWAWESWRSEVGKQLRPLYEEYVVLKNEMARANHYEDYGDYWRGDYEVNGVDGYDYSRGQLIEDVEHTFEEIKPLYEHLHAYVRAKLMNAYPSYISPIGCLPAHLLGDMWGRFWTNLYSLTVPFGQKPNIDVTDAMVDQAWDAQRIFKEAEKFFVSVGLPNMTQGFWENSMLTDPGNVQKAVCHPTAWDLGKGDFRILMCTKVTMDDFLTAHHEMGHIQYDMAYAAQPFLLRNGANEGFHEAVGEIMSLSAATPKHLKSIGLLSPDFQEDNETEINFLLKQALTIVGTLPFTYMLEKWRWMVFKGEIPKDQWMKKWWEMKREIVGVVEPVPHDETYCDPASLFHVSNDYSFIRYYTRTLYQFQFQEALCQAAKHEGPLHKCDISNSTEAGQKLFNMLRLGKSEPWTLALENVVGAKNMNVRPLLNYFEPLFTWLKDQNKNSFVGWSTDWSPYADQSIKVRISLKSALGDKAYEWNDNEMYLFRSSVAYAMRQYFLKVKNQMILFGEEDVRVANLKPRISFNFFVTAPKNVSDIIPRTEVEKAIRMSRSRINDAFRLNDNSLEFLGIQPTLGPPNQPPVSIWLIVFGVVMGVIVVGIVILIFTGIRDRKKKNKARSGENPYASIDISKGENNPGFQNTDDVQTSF
Procedure: The ACE2 protein (no. CSB-MP866317HU) was a recombinant human protein purchased from CUSABIO (Wuhan, China). […] The ACE2 protein was diluted to 50 μg/mL with sodium acetate at pH 4.0. The protein was fixed on the CM5 chip at a flow rate of 10 μL/min, and the coupling time was 420 s. […] Biacore T200 Control software (v.2.0) was used to collect sample data, and the 1:1 Langmuir binding model was fitted globally to determine the final KD. The binding affinity KD could be calculated from dissociation (Kd)/association (Ka).

S1-RBD/ACE2 = target: T2, S1-RBD/ACE2 (Homo sapiens, UniProt Q9BYF1); test: ELISA inhibition of S1-RBD binding to ACE2 (RayBio COVID-19 Spike ACE2 binding assay kit II); set-up: species or system SARS-CoV-2 (S1-RBD); conditions: 2 h, room temperature, 450 nm, repeated twice in each group, read-out: inhibitory rate on S1-RBD/ACE2
T2 construct: purchased RayBio (RayBiotech)
T2 sequence (Q9BYF1 18-740): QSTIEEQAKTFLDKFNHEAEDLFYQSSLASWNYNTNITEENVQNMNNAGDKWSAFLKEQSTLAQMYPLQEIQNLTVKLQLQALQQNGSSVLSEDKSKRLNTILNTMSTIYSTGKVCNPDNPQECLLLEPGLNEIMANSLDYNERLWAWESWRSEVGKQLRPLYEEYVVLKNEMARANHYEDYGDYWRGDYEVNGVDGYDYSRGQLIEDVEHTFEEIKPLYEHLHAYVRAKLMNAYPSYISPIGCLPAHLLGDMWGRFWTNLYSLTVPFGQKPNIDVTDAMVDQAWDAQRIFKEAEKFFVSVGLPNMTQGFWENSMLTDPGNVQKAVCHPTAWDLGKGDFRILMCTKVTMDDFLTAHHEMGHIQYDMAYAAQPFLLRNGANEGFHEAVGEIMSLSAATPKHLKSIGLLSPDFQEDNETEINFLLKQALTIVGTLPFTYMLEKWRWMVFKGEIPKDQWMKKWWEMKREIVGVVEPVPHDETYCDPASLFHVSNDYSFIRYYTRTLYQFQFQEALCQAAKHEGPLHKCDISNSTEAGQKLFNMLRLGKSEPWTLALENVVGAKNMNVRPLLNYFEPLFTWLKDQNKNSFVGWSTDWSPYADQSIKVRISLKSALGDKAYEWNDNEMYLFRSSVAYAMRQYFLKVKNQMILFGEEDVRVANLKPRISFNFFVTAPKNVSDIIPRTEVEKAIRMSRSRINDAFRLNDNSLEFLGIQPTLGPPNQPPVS
Procedure: The RayBio COVID-19 Spike ACE2 binding assay kit II (no. QHD43416) was used to detect the inhibitory effect of the KKCH peptides on the binding of the RBD protein and the ACE2 receptor protein. Using a PBS solution, KKCH was diluted to 10 μM, 90 μM, 180 μM, 360 μM, 720 μM, and 1440 μM. Then, 125 μL of test reagent was obtained by mixing different concentrations of the 10 μL KKCH peptide solutions with Fc-labeled recombinant S1-RBD protein solution. Next, 100 μL of test reagent was added to each well of a 96-well plate coated with the recombinant ACE2 protein, repeated twice in each group, and incubated at room temperature for 2 h. The plates were washed four times with a wash buffer to remove unbound S1-RBD proteins. Then, 100 μL of enzyme-labeled Anti-IgG was added to each well and incubated for 1 h, 100 μL of TMB was added at room temperature and incubated for 0.5 h, and 50 μL […] the reaction. The yellow intensity was measured at 450 nm, and the inhibition rate of the KKCH peptide was calculated.

SARS-CoV-2 live virus = conditions: 2 h
HEK293T cells = conditions: for survival rate of HEK293T cells: 2 h
Vero cells = conditions: for survival rate of Vero cells: 2 h
HEK293T = conditions: 394.10 μM; cited from earlier work

CCN(CC)CCCC(C)Nc1ccnc2cc(Cl)ccc12 (stereo not shown) [chloroquine]
effect on ACE2 (ACE2 [1]): can prevent the glycosylation of ACE2

C[C@@]1(C(=O)O)CC[C@]2(C)CC[C@]3(C)C4=CC(=O)c5c(cc(O)c(O)c5C=O)[C@]4(C)CC[C@@]3(C)[C@@H]2C1 [demethylzeylasteral]
Kd (ACE2 [2]): 1.74 µM

C[C@@H]1C[C@H]2[C@@H]3CCC4=CC(=O)C=C[C@]4(C)[C@@]3(F)[C@@H](O)C[C@]2(C)[C@@]1(O)C(=O)CO [dexamethasone]
Kd (ACE2 [2]): 9.03 µM

O=c1c(-c2ccc(O)cc2)coc2c([C@@H]3O[C@H](CO)[C@@H](O)[C@H](O)[C@H]3O)c(O)ccc12 [puerarin]
Kd (ACE2 [2]): 670 µM | reduction of RU values of S1 protein and ACE2 [3]: 20 units

KKCHFWPFPW [KKCH]
kon (ACE2 protein): 154000 ± 1.5e+09 M⁻¹ s⁻¹ | inhibition at 10 µM (S1-RBD/ACE2; 10 μM): 6.8% | inhibition at 90 µM (S1-RBD/ACE2; 90 μM): 10.9% | inhibition at 180 µM (S1-RBD/ACE2; 180 μM): 17% | inhibition at 360 µM (S1-RBD/ACE2; 360 μM): 34% | inhibition at 720 µM (S1-RBD/ACE2; 720 μM): 89.7% | inhibition at 1440 µM (S1-RBD/ACE2; 1440 μM): 94.1% | inhibitory rate against SARS-CoV-2 (SARS-CoV-2 live virus; 10 μM): 4.97% | inhibitory rate against SARS-CoV-2 (SARS-CoV-2 live virus; 25 μM): 11.32% | inhibitory rate against SARS-CoV-2 (SARS-CoV-2 live virus; 50 μM): 15.40% | inhibitory rate against SARS-CoV-2 (SARS-CoV-2 live virus; 100 μM): 17.91% | inhibitory rate against SARS-CoV-2 (SARS-CoV-2 live virus; 150 μM): 22.41% | inhibitory rate against SARS-CoV-2 (SARS-CoV-2 live virus; 200 μM): 32.01% | inhibitory rate against SARS-CoV-2 (SARS-CoV-2 live virus; 350 μM): 38.31% | inhibitory rate against SARS-CoV-2 (SARS-CoV-2 live virus; 450 μM): 54.80% | viability rate of BEAS-2B cells (BEAS-2B cells; 40 µM): 99.80% | viability rate of BEAS-2B cells (BEAS-2B cells; 80 µM): 99.77% | viability rate of BEAS-2B cells (BEAS-2B cells; 160 µM): 99.37% | viability rate of BEAS-2B cells (BEAS-2B cells; 240 µM): 99.63% | viability rate of BEAS-2B cells (BEAS-2B cells; 320 µM): 98.07% | viability rate of BEAS-2B cells (BEAS-2B cells; 400 µM): 95.87% | viability rate of BEAS-2B cells (BEAS-2B cells; 480 µM): 82.95% | effect on BEAS-2B cell viability (significance) (BEAS-2B cells; less than 480 μM, p > 0.05): no significant effect on cell viability | survival rate of HEK293T cells (HEK293T cells; 40 μM): 98.28% | survival rate of HEK293T cells (HEK293T cells; 80 μM): 95.28% | survival rate of HEK293T cells (HEK293T cells; 160 μM): 94.74% | survival rate of HEK293T cells (HEK293T cells; 240 μM): 92.39% | survival rate of HEK293T cells (HEK293T cells; 320 μM): 90.77% | survival rate of HEK293T cells (HEK293T cells; 400 μM): 92.69% | survival rate of HEK293T cells (HEK293T cells; 480 μM): 81.66% | effect on HEK293T cell viability (significance) (HEK293T cells; less than 480 μM, p > 0.05): no significant effect on cell viability | toxicity to Vero cells (significance) (Vero cells; 40 to 400 µM, p > 0.05 vs control): not toxic to the cells in this range | survival rate of Vero cells (Vero cells; 40 μM): 97.81% | survival rate of Vero cells (Vero cells; 80 μM): 96.97% | survival rate of Vero cells (Vero cells; 160 μM): 98.23% | survival rate of Vero cells (Vero cells; 240 μM): 96.21% | survival rate of Vero cells (Vero cells; 320 μM): 95.85% | survival rate of Vero cells (Vero cells; 400 μM): 92.64% | survival rate of Vero cells (Vero cells; 480 μM): 90.44%

thanatin: peptide (thanatin) derived from insects
cytotoxicity to HEK293T (HEK293T): no obvious cytotoxicity

tuftsin
Kd (ACE2 [2]): 460 µM
